Patent US20030078211A1, “Compositions and methods for inhibiting bone resorption” (Merck & Co., Inc., priority 1998, published 2003)
*: point of attachment. Cbz = O=C(OCc1ccccc1)*; CH2F = FC*

Columns and labels:
Mst 1 = assay: In-gel kinase assay using myelin basic protein as a substrate, purified osteoclast-like cells (FIG. 4); type: cell-based, mice; conditions: for effect of caspase inhibitor on activation of Mst 1 by alendronate monosodium trihydrate: 20 μM caspase inhibitor with 30 μM alendronate monosodium trihydrate, FIG. 4 lanes 6-8
Procedure: Murine co-cultures of osteoblasts and marrow cells are prepared using the methods of Wesolowski, et al., Exp Cell Res, (1995), 219, pp. 679-686, which is incorporated by reference herein in its entirety. Bone marrow cells are harvested from 6-week-old male Balb/C mice by flushing marrow spaces of freshly isolated long bones (tibiae and femora) with α-MEM (minimal essential media) containing penicillin/streptomycin (100 I.U./ml of each and 20 mM Hepes buffer). The bone marrow cells are suspended in α-MEM and the cells are filtered through an approximately 70 μm cell strainer. The filtrate is centrifuged at about 300×g for about 7 minutes. The resulting pellet is resuspended in α-MEM supplemented with fetal calf serum (10% v/v) and 10 nM 1, 25-(OH)2 vitamin D3. These bone marrow isolates are added to sub-confluent monolayers of osteoblastic MB 1.8 cells in cell culture plates and cultured for 7 days at 37° C. in the presence of 5% CO2. Culture media is replenished ever other day. Fusion of the osteoclast precursor cells from bone marrow (with each other) to form multinucleated osteoclast-like cells typically occurs after about 7 days. Osteoclast-like cells are enriched by sequential treatment with collagenase (1 mg/mL in phosphate buffered saline) for one hour at 37° C. and EDTA (0.2 g/L in phosphate buffered saline) for 20 min at 37° C. Non-adherent cells are rinsed away by washing with phosphate buffered saline. […]
The compounds to be evaluated are prepared as a solution of the desired concentration in α-MEM. Examples of compounds that can be evaluated include nitrogen-containing bisphosphonates such as alendronate monosodium trihydrate, as well as compounds that block the effects of these inhibitors, such as caspase inhibitors such as Z-Val-Ala-Asp-FMK, Z-Asp-Glu-Val-Asp-FMK, and Z-Tyr-Val-Ala-Asp-FMK. Combinations of compounds can also be evaluated. The solutions of the compounds to be evaluated are added to the cultures for a time period of 17-24 hours. […]
Cells are then harvested and lysed in a HEPES (N-(2-hydroxyethyl)piperazine-N′-(2-ethansulfonic acid) or Tris buffer containing the following: β-glycerophosphate (50 mM); Na3VO4 (1 mM); NaF (1 mM); Microcystin LR (1 μM); leupeptin (10 μg/ml); aprotinin (10 μg/ml); phenylmethyl sulfonylfluoride (1 mM). Protein concentrations are determined for each lysate and 5-20 μg are loaded into each lane of a SDS-PAGE (sodium dodecyl sulfate-polyacrylamide gel electrophoresis) gel containing Myelin Basic Protein, or another kinase substrate, which has been polymerized into the gel at a concentration between 50-400 μg/ml. […]

osteoclast = assay: Osteoclast cell cultures and bone resorption assays; type: cell-based
[1] = system: 34 kDa Mst kinase fragment; assay: In-gel kinase assay of lysates of treated osteoclast-like cells; type: cell-based, mice; conditions: for activation of a 34 kDa Kinase: FIG. 3; for activation of the 34 kDa Mst Kinase fragment: FIG. 2
Procedure: Murine co-cultures of osteoblasts and marrow cells are prepared using the methods of Wesolowski, et al., Exp Cell Res, (1995), 219, pp. 679-686, which is incorporated by reference herein in its entirety. Bone marrow cells are harvested from 6-week-old male Balb/C mice by flushing marrow spaces of freshly isolated long bones (tibiae and femora) with α-MEM (minimal essential media) containing penicillin/streptomycin (100 I.U./ml of each and 20 mM Hepes buffer). The bone marrow cells are suspended in α-MEM and the cells are filtered through an approximately 70 μm cell strainer. The filtrate is centrifuged at about 300×g for about 7 minutes. The resulting pellet is resuspended in α-MEM supplemented with fetal calf serum (10% v/v) and 10 nM 1, 25-(OH)2 vitamin D3. These bone marrow isolates are added to sub-confluent monolayers of osteoblastic MB 1.8 cells in cell culture plates and cultured for 7 days at 37° C. in the presence of 5% CO2. Culture media is replenished ever other day. Fusion of the osteoclast precursor cells from bone marrow (with each other) to form multinucleated osteoclast-like cells typically occurs after about 7 days. Osteoclast-like cells are enriched by sequential treatment with collagenase (1 mg/mL in phosphate buffered saline) for one hour at 37° C. and EDTA (0.2 g/L in phosphate buffered saline) for 20 min at 37° C. Non-adherent cells are rinsed away by washing with phosphate buffered saline. Osteoclast-like cells which are resistant to the sequential treatments are present at about 95% purity and are maintained in α-MEM supplemented with fetal calf serum (10% v/v), 10 nM 1,25-(OH)2 vitamin D3, macrophage-colony-stimulating factor (5 ng/mL).
The compounds to be evaluated are prepared as a solution of the desired concentration in α-MEM. Examples of compounds that can be evaluated include nitrogen-containing bisphosphonates such as alendronate monosodium trihydrate, as well as compounds that block the effects of these inhibitors, such as caspase inhibitors such as Z-Val-Ala-Asp-FMK, Z-Asp-Glu-Val-Asp-FMK, and Z-Tyr-Val-Ala-Asp-FMK. Combinations of compounds can also be evaluated. The solutions of the compounds to be evaluated are added to the cultures for a time period of 17-24 hours. No treatment controls (controls not treated with comcpounds) are prepared by adding equivalent volumes of α-MEM to the control dishes.
Cells are then harvested and lysed in a HEPES (N-(2-hydroxyethyl)piperazine-N′-(2-ethansulfonic acid) or Tris buffer containing the following: β-glycerophosphate (50 mM); Na3VO4 (1 mM); NaF (1 mM); Microcystin LR (1 μM); leupeptin (10 μg/ml); aprotinin (10 μg/ml); phenylmethyl sulfonylfluoride (1 mM). Protein concentrations are determined for each lysate and 5-20 μg are loaded into each lane of a SDS-PAGE (sodium dodecyl sulfate-polyacrylamide gel electrophoresis) gel containing Myelin Basic Protein, or another kinase substrate, which has been polymerized into the gel at a concentration between 50-400 μg/ml. Molecular weight standards are also loaded into one or more lanes of the gels. In-gel kinase assays are run according to a standard procedure based on Kameshita and Fujisawa, 1989 (Anal. Biochem. 183:139-143) and of Gotoh et al., 1990 (Eur. J. Biochem. 193: 661-669), both references being incorporated by reference herein in their entirety. The proteins are electrophoresed in the above gels. The gels are then successively soaked in 50 mM HEPES, pH 7.6; 5 mM 2-mercaptoethanol and each of the following (for each wash): (a) 20% isopropanol; (b) no additions; (c) urea (6 M); (d) Urea (3 M); (e) Urea (0.75 M); and Tween 20 (0.05% vol:vol). Kinase reactions are then run by first soaking the gels in 20 mM HEPES, pH 7.6; 20 mM MgCl2; 2 mM DTT and then in the same buffer containing […] ATP (non-radioactive) with ca. 1000 cpm/pmol ^32P-γ-ATP. The gels are then washed six times with 5% trichloroacetic acid and 1% pyrophosphate.

[2] = system: Mst (mammalian Sterile-20-like kinase); assay: Bisphosphonate-induced cleavage of Mst in osteoclasts; type: cell-based

| Compound | effect of caspase inhibitor on activation of Mst 1 by alendronate monosodium trihydrate (Mst 1) | effect on the inhibitory effect otherwise observed with a bisphosphonate such as alendronate monosodium trihydrate (osteoclast) | activation of the 34 kDa Mst Kinase fragment ([1]; 30 μM, about 17 hours) | activation of the 34 kDa Mst Kinase fragment ([1]; 100 μM, about 17 hours) | activation of a 34 kDa Kinase ([1]; 100 μM, 17 hours) | activation of a 34 kDa Kinase ([1]; 300 μM, 17 hours) | further results |
| --- | --- | --- | --- | --- | --- | --- | --- |
| Z-Tyr-Val-Ala-Asp-FMK (Cbz-YVAD-CH2F; SMILES CC(C)[C@H](NC(=O)[C@H](Cc1ccc(O)cc1)NC(=O)OCc1ccccc1)C(=O)N[C@@H](C)C(=O)N[C@@H](CC(=O)O)C(=O)CF) | blocked | can block the inhibitory effect |  |  |  |  |  |
| NCCCC(O)(P(=O)(O)O)P(=O)(O)O [alendronate monosodium trihydrate, 4-amino-1-hydroxybutylidene-1,1-bisphosphonic acid monosodium trihydrate] |  |  | activation | activation |  |  | activation of a 34 kDa Kinase ([1]; 10 μM, about 17 hours): activation; activation of the 34 kDa Mst Kinase fragment immunoprecipitated by anti-Mst and anti-Krs antibody cocktail ([1]; 30 μM, FIG. 1 lane 3): activated; activation of a 34 kDa Kinase ([1]; 30 μM, about 17 hours): activation; activation of Mst 1 (Mst 1; 30 μM, osteoclast-like cells, FIG. 4): activation |
| CC(O)(P(=O)(O)O)P(=O)(O)O [etidronate disodium] |  |  | fail to activate | fail to activate | fail to activate | fail to activate |  |
| Cbz-Val-Ala-Asp-CH2F | blocked | can block the inhibitory effect |  |  |  |  | activation of the 34 kDa Kinase by alendronate when coincubated with the caspase inhibitor ([1]; coincubation with alendronate, FIG. 3 lane 8): does not activate; effect on cleavage of Mst induced by bisphosphonates such as alendronate monosodium trihydrate [2]: prevent the cleavage of Mst |
| O=P(O)(O)C(Sc1ccc(Cl)cc1)P(=O)(O)O [tiludronate disodium] |  |  | fail to activate | fail to activate | fail to activate | fail to activate |  |
| Z-Asp-Glu-Val-Asp-FMK (Cbz-DEVD-CH2F; SMILES CC(C)[C@H](NC(=O)[C@H](CCC(=O)O)NC(=O)[C@H](CC(=O)O)NC(=O)OCc1ccccc1)C(=O)N[C@@H](CC(=O)O)C(=O)CF) | blocked | can block the inhibitory effect |  |  |  |  |  |
